Measurements published in patent US11319293B2, “Polymorps of cariprazine hydrochloride and preparation method thereof and use of same” (SHANGHAI BEGREAT PHARMATECH, priority 2018, dated 2022).
Structures can show the parent of a compound that is named as a salt.

Assays:
[1] = Dissolution and re-precipitation time in pH 6.5 buffer (simulated fasting small intestine); assay type: physicochemical; conditions: for Dissolving time / Precipitate time: 5 mg crystal form in 80 mL pH 6.5 buffer solution; for Dissolving time: shaken slightly; for Precipitate time: time of re-precipitation, hydrochloride
Method: In Example 1, precipitation time for Form A and Forms I and II were compared under pH of simulated intestinal fluid. Take 5 mg of crystal forms A, I and II, and put them in 100-ml glass sample bottles, add 80 mL of pH 6.5 buffer solution (pH value of simulating fasting small intestine), and shake them slightly to observe precipitate. Dissolution status and time of re-precipitation were recorded.

[2] = Powder flowability test (angle of repose); assay type: physicochemical; conditions: for angle of repose: average of three determinations, α=arctg(H/R), hydrochloride; for flowability compared with forms I and II (in words): conclusion from angle of repose
Text: Angle of repose is adopted widely to evaluate the powder flowability. When the angle of repose of the powder is less than or equal to 30 degrees, it means the flowability of this powder is good. While in case, 40 degrees or less of the powder angle of repose, this powder can satisfy the demand for fluidity in the production process. When the angle of repose of the powder is more than 40 degrees, it means the very poor flowability of the drug powder which may cause the troubles above mentioned during the drug manufacturing process.
Powder flowability test: A petri dish with a diameter of 7 cm in the bottom plate is used. Two glass funnels are staggered on top of each other and fixed on an iron stand. The distance between the lower funnel outlet and the bottom plate is between 3.5-6.0 cm. Take some cariprazine hydrochlorides in different crystal forms, and slowly add them from the upper funnel, so that the sample gradually accumulates on the chassis through the buffer of the two funnels to form a cone until the highest cone is obtained. Measure the height H of the cone. Determine three times for each sample, take the average, and calculate the angle of repose as follows: α=arctg(H/R) Among them, α is the angle of repose and R is the radius of the chassis.
When the angle of repose of the powder is less than or equal to 30 degrees, it means flowability of powder is good. The flowability requirement in the manufactured process can be satisfied when it is less than or equal to 40 degrees. If the angle of repose of powder is more than 40 degrees, it means flowability is poor.

schizophrenia = conditions: cited from earlier work
bipolar disorder = conditions: cited from earlier work

CN(C)C(=O)N[C@H]1CC[C@H](CCN2CCN(c3cccc(Cl)c3Cl)CC2)CC1 [Form I, cariprazine hydrochloride]
Dissolving time [1]: immediately
Precipitate time [1]: 1 min
angle of repose [2]: 40°

CN(C)C(=O)N[C@H]1CC[C@H](CCN2CCN(c3cccc(Cl)c3Cl)CC2)CC1 [Compound 1, hydrochloride]
most common adverse effects in the treatment of schizophrenia (schizophrenia; clinical trials): extrapyramidal symptoms, including tremor, speech insufficiency, and dystonia
symptoms of schizophrenia compared to placebo group (schizophrenia; six-week clinical trial, 1,754 participants, according to the FDA): significantly reduces the symptoms of schizophrenia
symptoms of bipolar disorder compared with placebo group (bipolar disorder; 6-week clinical trial, 1037 subjects): significantly reduce the symptoms of bipolar disorder
most common adverse effects in the treatment of bipolar disorder (bipolar disorder; clinical trials): extrapyramidal symptoms, manifested by inability to sit still, indigestion, vomiting, lethargy, and restlessness

CN(C)C(=O)N[C@H]1CC[C@H](CCN2CCN(c3cccc(Cl)c3Cl)CC2)CC1 [Form B, trans-N-{4-[2-[4-(2,3-dichlorophenyl)-piperazine-1-yl]-ethyl]-cyclohexyl}-N′,N′-dimethylurea hydrochloride]
angle of repose [2]: 28°
flowability compared with forms I and II (in words) [2]: significantly improve the flowability

CN(C)C(=O)N[C@H]1CC[C@H](CCN2CCN(c3cccc(Cl)c3Cl)CC2)CC1 [Form C, trans-N-{4-[2-[4-(2,3-dichlorophenyl)-piperazine-1-yl]-ethyl]-cyclohexyl}-N′,N′-dimethylurea hydrochloride]
angle of repose [2]: 31°
flowability compared with forms I and II (in words) [2]: significantly improve the flowability

CN(C)C(=O)N[C@H]1CC[C@H](CCN2CCN(c3cccc(Cl)c3Cl)CC2)CC1 [Form II, cariprazine hydrochloride]
Dissolving time [1]: immediately
Precipitate time [1]: 1 min
angle of repose [2]: 40°

CN(C)C(=O)N[C@H]1CC[C@H](CCN2CCN(c3cccc(Cl)c3Cl)CC2)CC1 [Form A, trans-N-{4-[2-[4-(2,3-dichlorophenyl)-piperazine-1-yl]-ethyl]-cyclohexyl}-N′,N′-dimethylurea hydrochloride]
Dissolving time [1]: immediately
Precipitate time [1]: 10 min
maintenance of dissolved state under near-neutral conditions compared to Forms I and II (in words) ([1]; pH 6.5 buffer): significantly prolonged maintenance
angle of repose [2]: 35°
flowability compared with forms I and II (in words) [2]: significantly improve the flowability
